What all share (type): cell-based
Common to all, as to details: Fluo 3, 100% = S1P at 10^-6 M

Assay [1] has as its target T1, human S1P3 receptor (Homo sapiens, UniProt Q99500).
T1 construct: expressed in transfected cells; host or cells: CHO-K1
Description: Intracellular calcium mobilization induced test, hS1P3 receptors expressing CHO-K1 cells. How it is done:
(§1) Intracellular Calcium Mobilization Induced Test of a Subject Compound Against Human S1P (sphingosine-1-phosphate) Receptor-expressing Cells
(§2) Human S1P receptors expressing CHO-K1 cells (hS1P1 receptors expressing CHO-K1 cells, hS1P3 receptors expressing CHO-K1 cells, and hS1P4 receptors expressing CHO-K1 cells), were maintained in Ham's F-12 medium containing 10% fetal bovine serum and 400 μg/mL Geneticin. Into a black, clear bottom, culture plate (BD Falcon) with 96 wells, 7×10^4 cells/well of the hS1P1 and hS1P3 receptors expressing CHO-K1 cells were plated, and […] of the hS1P4 receptors expressing CHO-K1 cells were plated. The cells were incubated overnight at 37° C. at 5% CO2. The medium in the wells were removed by suction. A loading buffer included in a Calcium Kit-Fluo 3 reagent (Dojindo Laboratories) was added as a fluorescent Ca^2+-binding indicator. The cells were incubated for 80 minutes at 37° C. at 5% CO2. After the incubation, the wells were washed with PBS. A recording buffer included in a Calcium Kit-Fluo 3 reagent was added, and the cells were incubated for 20 minutes at 37° C. at 5% CO2. Using a microplate spectrophotofluorometer (FLEX Station, Molecular Devices), the fluorescence intensity at an excitation wavelength of 485 nm and a detection wavelength of 525 nm was measured. S1P and the subject compound prepared in medium so that the concentration was 10-fold that of the final concentration (final DMSO concentration of 0.1%). The solution was added 18 seconds after the fluorescence measurement was started, and then fluorescence intensity was continuously measured every 1.5 seconds until 100 seconds after addition. A value (fluorescence increase) obtained by subtracting the minimum fluorescence intensity from the maximum fluorescence intensity was calculated from the measurement data. Taking the difference between the fluorescence increase when the solvent was added and the fluorescence increase when the S1P was allowed to act at 10^−6 M as 100%, the fluorescence increase ratio (%) of the subject compound was calculated. Taking this value as the intracellular calcium mobilization induced activity of the subject compound, the EC50 value was determined using PRISM software (GraphPad). In Table 1, 10 nmol/L>EC50 value ≧1 nmol/L is indicated as a +, and 1 nmol/L>EC50 value is indicated as a ++.

Assay [2] has as its target T2, human S1P4 receptor (Homo sapiens, UniProt O95977).
T2 construct: expressed in transfected cells; host or cells: CHO-K1
T2 sequence (O95977 1-384): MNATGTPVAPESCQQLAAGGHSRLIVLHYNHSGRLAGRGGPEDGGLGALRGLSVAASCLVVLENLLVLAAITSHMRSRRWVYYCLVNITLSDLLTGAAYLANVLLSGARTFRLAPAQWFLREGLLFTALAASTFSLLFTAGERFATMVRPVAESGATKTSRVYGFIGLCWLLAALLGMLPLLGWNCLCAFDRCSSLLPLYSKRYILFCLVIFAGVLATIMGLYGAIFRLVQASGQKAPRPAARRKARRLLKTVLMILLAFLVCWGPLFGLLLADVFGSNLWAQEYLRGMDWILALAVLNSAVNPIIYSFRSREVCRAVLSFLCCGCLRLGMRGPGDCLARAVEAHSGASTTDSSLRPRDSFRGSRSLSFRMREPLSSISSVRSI
Description: Intracellular calcium mobilization induced test, hS1P4 receptors expressing CHO-K1 cells. How it is done:
as §1, §2

Assay [3] deals with T3, human S1P1 receptor (Homo sapiens, UniProt P21453).
T3 construct: expressed in transfected cells; host or cells: CHO-K1
T3 sequence (P21453 whole entry): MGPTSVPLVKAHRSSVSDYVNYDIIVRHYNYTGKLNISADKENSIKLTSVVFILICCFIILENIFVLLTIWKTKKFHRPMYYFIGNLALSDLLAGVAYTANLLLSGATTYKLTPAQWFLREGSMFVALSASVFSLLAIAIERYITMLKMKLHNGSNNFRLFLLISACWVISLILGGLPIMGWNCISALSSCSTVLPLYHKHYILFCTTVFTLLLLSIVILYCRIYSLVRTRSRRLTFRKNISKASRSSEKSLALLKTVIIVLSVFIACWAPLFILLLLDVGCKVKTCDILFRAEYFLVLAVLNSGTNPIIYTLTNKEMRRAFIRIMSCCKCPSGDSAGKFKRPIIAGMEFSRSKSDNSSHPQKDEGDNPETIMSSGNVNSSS
Description: Intracellular calcium mobilization induced test, hS1P1 receptors expressing CHO-K1 cells. How it is done: as §1, §2
(A change in cytosolic calcium serves as a functional read-out for many receptors and channels.)

What is called EC50 is the concentration at which the effect is half-maximal.

T1 sequence (Q99500 whole entry): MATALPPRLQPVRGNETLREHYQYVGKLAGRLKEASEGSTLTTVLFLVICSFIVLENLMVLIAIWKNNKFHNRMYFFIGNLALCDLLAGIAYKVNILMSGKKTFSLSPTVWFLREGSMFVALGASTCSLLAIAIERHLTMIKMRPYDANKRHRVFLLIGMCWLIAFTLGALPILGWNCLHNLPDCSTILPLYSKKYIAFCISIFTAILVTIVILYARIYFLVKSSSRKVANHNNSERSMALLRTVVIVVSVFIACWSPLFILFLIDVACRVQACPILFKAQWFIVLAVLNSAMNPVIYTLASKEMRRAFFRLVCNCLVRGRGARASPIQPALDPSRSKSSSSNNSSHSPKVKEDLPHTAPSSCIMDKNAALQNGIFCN

Take `C[C@@](N)(CCCc1ccc(Oc2cccc(C(F)(F)F)c2)cc1Cl)COP(=O)(O)O` [Example 40, (R)-2-amino-5-[2-chloro-4-(3-trifluoromethylphenoxy)phenyl]-2-methylpentyl phosphoric acid monoester]: the EC50 in assay [1] is greater than 10000 nM; in assay [2], 1 to 10 nM; in assay [3], less than 1 nM.
`C[C@@](N)(CCCc1ccc(Sc2cccc(C(F)(F)F)c2)cc1Cl)COP(=O)(O)O` [Example 41, (R)-2-amino-5-[2-chloro-4-(3-trifluoromethylphenylthio)phenyl]-2-methylpentyl phosphoric acid monoester]: the EC50 was greater than 10000 nM in assay [1], 1 to 10 nM in assay [2] and less than 1 nM in assay [3].
Consider `C[C@@](N)(CCc1ccc(Oc2cccc(C(F)(F)F)c2)cc1Cl)COP(=O)(O)O` [Example 42, (R)-2-amino-4-[2-chloro-4-(3-trifluoromethylphenoxy)phenyl]-2-methylbutyl phosphoric acid monoester], for which the EC50 in assay [1] was greater than 10000 nM; in assay [2], 1 to 10 nM; in assay [3], less than 1 nM.
The matching figures for `C[C@@](N)(CCc1ccc(Sc2cccc(C(F)(F)F)c2)cc1Cl)COP(=O)(O)O` [Example 43]: greater than 10000 nM, 1 to 10 nM and less than 1 nM.
The matching figures for `CCc1cccc(Sc2ccc(CC[C@@](C)(N)COP(=O)(O)O)c(Cl)c2)c1` [Example 44, (R)-2-amino-4-[2-chloro-4-(3-ethylphenylthio)phenyl]-2-methylbutyl phosphonic acid monoester]: greater than 10000 nM, 1 to 10 nM and less than 1 nM.
The matching figures for `Cc1cccc(Oc2ccc(CCC[C@@](C)(N)COP(=O)(O)O)c(Cl)c2)c1` [Example 45, (R)-2-amino-5-[2-chloro-4-(3-methylphenoxy)phenyl]-2-methylpentyl phosphonic acid monoester]: greater than 10000 nM, 1 to 10 nM and less than 1 nM.
In the case of `CCc1cccc(Sc2ccc(CCC[C@@](C)(N)COP(=O)(O)O)c(Cl)c2)c1` [Example 46, (R)-2-amino-5-[2-chloro-4-(3-ethylphenylthio)phenyl]-2-methylpentyl phosphonic acid monoester], the EC50 in assay [1] is greater than 10000 nM; in assay [2] it was 1 to 10 nM; in assay [3] it was less than 1 nM.
The matching figures for `CCCc1cccc(Oc2ccc(CCC[C@@](C)(N)COP(=O)(O)O)c(Cl)c2)c1` [Example 47, (R)-2-amino-5-[2-chloro-4-(3-propylphenoxy)phenyl]-2-methylpentyl phosphonic acid monoester]: greater than 10000 nM, 1 to 10 nM and less than 1 nM.
As for `C[C@@](N)(CCCc1ccc(Sc2cccc(Cl)c2)cc1Cl)COP(=O)(O)O` [Example 48, (R)-2-amino-5-[2-chloro-4-(3-chlorophenylthio)phenyl]-2-methylpentyl phosphonic acid monoester], the values for the 50% effective concentration (EC50) in assay [1], in assay [2] and in assay [3] were greater than 10000 nM, less than 1 nM and 1 to 10 nM, respectively.
On the same counts, the results for `C[C@@](N)(CCCc1ccc(Sc2cccc(C(F)(F)F)c2)cc1F)COP(=O)(O)O` [Example 49, (R)-2-amino-5-[2-fluoro-4-(3-trifluoromethylphenylthio)phenyl]-2-methylpentyl phosphonic acid monoester] are greater than 10000 nM, 1 to 10 nM and less than 1 nM.
On the same counts, the results for `CCC[C@@](N)(CCCc1ccc(Sc2cccc(C(F)(F)F)c2)cc1Cl)COP(=O)(O)O` [Example 50, (R)-2-amino-5-[2-chloro-4-(3-trifluoromethylphenylthio)phenyl]-2-propylpentyl phosphonic acid monoester] are greater than 10000 nM, 1 to 10 nM and less than 1 nM.
The matching figures for `C[C@@](N)(CCCc1ccc(Sc2cccc(C(F)F)c2)cc1Cl)COP(=O)(O)O` [Example 51, (R)-2-amino-5-[2-chloro-4-(3-difluoromethylphenylthio)phenyl]-2-methylpentyl phosphonic acid monoester]: greater than 10000 nM, 1 to 10 nM and 1 to 10 nM.

These data come from patent US8232319B2, “Amino phosphate derivative and S1P receptor modulator having same as an active ingredient” (Kyorin Pharmaceutical Co., Ltd., priority 2006, dated 2012).
